In US20220008414A1, “PHARMACEUTICAL COMPOSITION COMPRISING HISTONE DEACETYLASE 6 INHIBITORS” (Chong Kun Dang Pharmaceutical Corp., priority 2018, published 2022):

Columns and labels:
[1] = test system: hippocampal neurons from a Sprague-Dawley (SD) rat fetus; assay: Effect on axonal transport velocity of mitochondria (in vitro); format: cell-based; settings: amyloid-beta treated neurons, vehicle set at 100%, amyloid-beta group at 0%
Description: To that end, on the 17th to 18th days (E17-18) of insemination, the hippocampal neurons from a Sprague-Dawley (SD) rat fetus were cultured for seven days in a culture container for imaging, which had been coated with extracellular matrix, and were treated with amyloid-beta protein fragments at a concentration of […]. In 24 hours later, such neurons were treated with the compound on the 8th day of in vitro culture. In three hours later, they were treated with MitoTracker Red CMXRos (Life Tech-nologies, NY, USA) for last five minutes to stain mitochondria. An image on the axonal transport of stained neuron mitochondria was taken with a confocal microscope (Leica SP8; Leica microsystems, UK) at an interval of one second for one minute to measure a transport velocity of each mitochondria per second with an IMARIS analysis program (BITPLANE, Zurich, Switzerland), and to set a section, in which the group treated with amyloid-beta had shown a significant decrease in the transport velocity of mitochondria compared to a vehicle. After that, the results of normalization with the vehicle set at 100% and with the group treated with amyloid-beta set at 0% were described in the following table 1.

HDAC-8 = molecular target: T1, HDAC-8 (Homo sapiens, UniProt Q9BY41); assay: HDAC isotype enzyme assay (Reaction biology Corp.); format: biochemical; settings: substrate RHK-K(Ac)-AMC
T1 construct: Reaction biology Corp. (contract laboratory)
T1 sequence (Q9BY41 1-377): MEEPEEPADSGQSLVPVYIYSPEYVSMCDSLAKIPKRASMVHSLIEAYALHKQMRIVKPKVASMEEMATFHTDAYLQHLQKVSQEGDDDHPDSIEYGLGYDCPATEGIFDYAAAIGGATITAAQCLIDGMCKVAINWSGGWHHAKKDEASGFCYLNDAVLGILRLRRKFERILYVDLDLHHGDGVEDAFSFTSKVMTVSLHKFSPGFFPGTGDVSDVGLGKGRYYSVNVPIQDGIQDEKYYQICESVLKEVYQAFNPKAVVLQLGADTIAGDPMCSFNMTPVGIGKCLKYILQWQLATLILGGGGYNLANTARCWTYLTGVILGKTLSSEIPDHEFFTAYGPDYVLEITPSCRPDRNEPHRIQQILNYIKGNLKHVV

other HDAC isotypes = assay: HDAC isotype enzyme assay (Reaction biology Corp.), remaining isotypes; format: biochemical; settings: isotypes other than HDAC6 and HDAC8 (ND in table 3)
CMT1A mice (C22) [2] = assay: Rotarod test; format: in vivo; settings: 10, 25 and 100 mg/kg twice a day orally for two weeks, 2.5-week-old C22 mice, vs control group (DW C22)
Description: (§1) Particularly, the compound 84 was repeatedly administered into the 2.5-week-old CMT1A mice (C22) at 10, 25 and 100 mg/kg twice a day for two weeks. Behavioral evaluation and electrophysiological analysis were performed on the last day, immediately after which the animals were sacrificed to carry out histopathological analysis and evaluation.
(§2) Rotarod, balance beam and grip strength tests were conducted once a day for two days. Thereafter, the animals were distributed by the Z-array method based on the results of rotarod, grip strength, and body weight. C22 mice were divided into four groups consisting of DW treated group and three compound 84 treated groups (10, 25, 100 mg/kg) with 10 mice per group. The test articles were repeatedly administered twice a day orally, and the behavioral test was performed 30 min after administration of the test articles.
The Rotarod test (ROTA ROD, LE8205, Panlab) was performed to evaluate a motor coordination function/motor function. For three days before the test, all the test animals were placed on a road at 8 rpm and subjected to adaptive training five times a day. The animals, whose time of falling from the rod reached 150-180 seconds, were used in the test (including about 80% of all the animals). In both group separation and the present experiment, time at which animals fell from the rod was measured at a fixed speed of 8 rpm for three minutes. […]

CMT1A mice (C22) [3] = assay: Grip strength test; format: in vivo; settings: 10, 25 and 100 mg/kg twice a day orally for two weeks, 2.5-week-old C22 mice, vs control group (DW C22)
Description: as §1, §2
In an actual clinical test, a degree of muscle atrophy is evaluated with an ankle dorsiflexion examination and a grip test. GST (GRIP […] TEST, BIO-GS3, BIOSEB) is mainly used in an animal experiment. For the GST, strength of four feet was evaluated with grid. All the experiments were performed by one person. […] Out of the values consecutively measured five times, the maximum value was calibrated with a weight, and then used as evaluation results. […]

CMT1A mice (C22) [4] = assay: Nerve conduction study (NCS); format: in vivo; settings: 10, 25 and 100 mg/kg twice a day for two weeks, 2.5-week-old C22 mice, vs control group (DW C22)
Description: as §1
The evaluation of the nerve conduction study (NSC) was as follows. A supramaximal stimulus was applied to proximal peripheral nerves, after which the compound muscle action potentials (CMAP) produced from distal muscles controlled by the nerves were recorded to measure a latent period, amplitude, nerve conduction velocity (NCV), duration, shape, area and the like, which were then compared with normal values and thus evaluated. For the nerve conduction study (NSC), an electrical stimulus was given to the sciatic nerves of the mice anesthetized with isoflurane, after which the electrical stimulus given to sural nerves was measured with VikingQuest (Natus Medical Inc.).

CMT1A mice (C22) [5] = assay: Histopathological analysis of sciatic nerves; format: in vivo
Description: as §1
A histopathological analysis was performed as follows. In 0.5 hours after the last administration of the compound 84, the mice were euthanized through cervical dis-location, after which their sciatic nerves were collected therefrom. For a histopathological examination, the collected sciatic nerves were fixed into 2.5% glu-taraldehyde solution. The fixed tissues were prepared into a plastic-embedded block through a tissue treatment process, then micro-sectioned in the semithin thickness of 500 nm to prepare sciatic nerve tissue fragments, and then stained with toluidine blue.
The stained nerve tissues were photographed at 400× magnification with an optical microscope. In a photographed entire area, the inner axon diameters of total myelinated fibers and total unmyelinated fibers were measured with an image J program. The results thereof were analyzed by using the numbers of total myelinated fibers and total unmyelinated fibers as well as a size distribution chart on the diameters of respective nerve fibers.

HDAC-6 [6] = molecular target: T2, HDAC-6 (Homo sapiens, UniProt Q9UBN7); assay: HDAC6 enzyme activity inhibition (HDAC Fluorimetric Drug Discovery Kit); format: biochemical; set-up: purchased Calbiochem Inc. 382180; settings: HDAC6 over HDAC1
T2 sequence (Q9UBN7 1-1215): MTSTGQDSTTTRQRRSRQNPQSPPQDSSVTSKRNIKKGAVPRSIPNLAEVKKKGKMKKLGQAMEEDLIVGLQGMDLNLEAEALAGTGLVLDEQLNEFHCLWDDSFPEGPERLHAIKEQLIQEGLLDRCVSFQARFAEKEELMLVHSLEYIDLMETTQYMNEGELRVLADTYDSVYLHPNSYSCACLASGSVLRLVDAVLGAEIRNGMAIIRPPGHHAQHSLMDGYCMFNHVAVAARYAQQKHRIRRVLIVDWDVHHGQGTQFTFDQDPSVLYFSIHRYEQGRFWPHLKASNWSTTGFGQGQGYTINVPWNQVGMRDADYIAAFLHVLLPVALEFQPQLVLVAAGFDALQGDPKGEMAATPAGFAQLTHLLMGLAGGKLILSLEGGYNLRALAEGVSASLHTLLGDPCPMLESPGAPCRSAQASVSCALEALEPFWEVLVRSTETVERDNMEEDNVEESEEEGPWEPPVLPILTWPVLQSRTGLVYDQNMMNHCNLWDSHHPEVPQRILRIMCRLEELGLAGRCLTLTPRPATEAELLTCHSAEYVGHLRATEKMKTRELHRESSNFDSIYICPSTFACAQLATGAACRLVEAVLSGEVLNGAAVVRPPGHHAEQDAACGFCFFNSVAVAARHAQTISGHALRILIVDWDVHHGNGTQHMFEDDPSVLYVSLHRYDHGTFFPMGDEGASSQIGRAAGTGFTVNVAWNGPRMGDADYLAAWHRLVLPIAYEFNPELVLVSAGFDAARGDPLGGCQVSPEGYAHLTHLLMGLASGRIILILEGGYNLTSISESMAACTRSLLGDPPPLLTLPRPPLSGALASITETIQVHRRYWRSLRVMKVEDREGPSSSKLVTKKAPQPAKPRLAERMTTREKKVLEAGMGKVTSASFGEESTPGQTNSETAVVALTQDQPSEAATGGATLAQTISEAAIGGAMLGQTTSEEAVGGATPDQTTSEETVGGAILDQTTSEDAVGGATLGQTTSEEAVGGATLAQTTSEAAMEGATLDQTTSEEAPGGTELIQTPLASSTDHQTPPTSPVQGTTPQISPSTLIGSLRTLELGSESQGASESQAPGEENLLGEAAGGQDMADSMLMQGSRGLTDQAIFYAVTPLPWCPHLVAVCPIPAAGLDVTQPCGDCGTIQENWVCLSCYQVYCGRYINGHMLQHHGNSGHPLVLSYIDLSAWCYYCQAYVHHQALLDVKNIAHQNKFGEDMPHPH
Description: A comparative experiment was conducted with an existing developed material as a control group in order to identify the selectivity of the compound represented by Formula I of the present invention to HDAC6 through an experiment on HDAC1 and HDAC6 enzyme activity inhibition.
The HDAC enzyme activity was measured with HDAC Fluorimetric Drug Discovery Kit (BML-[1424] AK511, 516) of Enzo Life Science, Inc. For the test on the HDAC1 enzyme activity, human recombinant HDAC1 (BML-SE456) was used as an enzyme source and Fluor de Lys®-“SIRT1 (BNL-KI177)” was used as a substrate. A 5-fold dilution of the compound was divided into a 96-well plate, after which 0.3 μg of the enzyme and 10 μM of the substrate were inserted into each well and subjected to reaction at 30° C. for 60 minutes, such that Fluor de Lys® Developer II (BMLKI176) was inserted thereinto and subjected to reaction for 30 minutes and finished. After that, a fluorescence value (Ex 360, Em 460) was measured with a multi-plate reader (Flexstation 3, Molecular Device). An experiment on HDAC6 enzyme was conducted in accordance with the same protocol as an HDAC1 enzyme activity test method by using human recombinant HDAC6 (382180) of Calbiochem Inc. Each IC50 value was calculated with GraphPad Prism 4.0 program, and final result values were described in the following table 2.

HDAC-6 [7] = molecular target: T2, HDAC-6; assay: HDAC isotype enzyme assay (Reaction biology Corp.); format: biochemical; set-up: Reaction biology Corp. (contract laboratory); settings: substrate RHK-K(Ac)-AMC
Description: The experiment was requested at Reaction biology Corp. (Malvern, Pa., USA) and performed according to a test method established within the organization.

Compound | Velocity distribution (%) ([1]; 0.5 uM) | Velocity distribution (%) ([1]; 15 uM) | IC50 (HDAC-8) [nM] | Inhibition of other HDAC isotypes (other HDAC isotypes) | Time of latency to fall (CMT1A mice (C22) [2]) | Grip strength (CMT1A mice (C22) [3]) | Compound muscle action potentials (CMAP) (CMT1A mice (C22) [4]) | Motor nerve conduction velocity (MNCV) (CMT1A mice (C22) [4]) | Size of diameters of myelinated nerves (CMT1A mice (C22) [5]; sciatic nerve, vs control group (C22-Veh)) | Ratio of myelinated nerves and unmyelinated nerves (CMT1A mice (C22) [5]; sciatic nerve, vs control group of mice) | Morphological changes (loss of myelinated nerve fibers, axonal atrophy and schwann cell hyperplasia) (CMT1A mice (C22) [5]; toluidine blue, 10, 25 or 100 mg/kg for two weeks, vs control group of mice) | HDAC6 selectivity (fold) (HDAC-6 [6]) | IC50 (HDAC-6 [7]) [nM] | Velocity distribution (%) ([1]; 1 uM) | Velocity distribution (%) ([1]; 3 uM)
C[C@@H]1CN(Cc2ccc(C(=O)NO)cc2)C[C@H](C)N1Cc1ccccc1 [Compound 84, 4-(((3R,5S)-4-benzyl-3,5-dimethylpiperazin-1-yl)methyl)-N-hydroxybenzamide] | * (0%~50%) | *** (>100%) | 5170 | not inhibited at all | increased in a dose-dependent manner | increased in a dose-dependent manner | increased in a dose-dependent way | increased in a dose-dependent way | increase | significant increase | significant improvement | 517 | 72.2 |  | 
C[C@@H]1CN(Cc2ccc(C(=O)NO)cc2)C[C@H](C)N1Cc1cccc(CN2CCCCC2)c1 [Compound 382, 4-(((3R,5S)-3,5-dimethyl-4-(3-(piperidin-1-ylmethyl)benzyl)piperazin-1-yl)methyl)-N-hydroxybenzamide] |  |  |  |  |  |  |  |  |  |  |  | >120 |  |  | 
CC(C)CCN1CCN(Cc2cccc(CN3[C@H](C)CN(Cc4ccc(C(=O)NO)cc4)C[C@@H]3C)c2)CC1 [Compound 454, N-hydroxy-4-(((3R,5S)-4-(3-((4-isopentylpiperazin-1-yl)methyl)benzyl)-3,5-dimethylpiperazin-1-yl)methyl)benzamide] |  | ** (50%~100%) |  |  |  |  |  |  |  |  |  | >237 |  | * (0%~50%) | * (0%~50%)
